Article PMC9975698, “Hyperoside alleviates toxicity of β-amyloid via endoplasmic reticulum-mitochondrial calcium signal transduction cascade in APP/PS1 double transgenic Alzheimer's disease mice” (Redox Biology, 2023)

Assays:
Aβ (1–42) = target: T1, Aβ (1–42) (Homo sapiens, UniProt P05067); assay: Thioflavin T (ThT) fluorescence assay of Aβ fibrillation; type: biochemical; conditions: Aβ 30 μM, 37 °C, day 1–7
T1 construct: purchased DGpeptites, Hangzhou, CHINA
Description: HYP was incubated with Aβ (30 μM) for 7 days at 37 °C at a final volume of 100 μL. ThT fluorescence measurement was measured for every 24 h. ThT (20 μM) dissolved in PBS (pH = 7.4) was added in a black 96-well plate with 10 μL of aggregated Aβ (with or without HYP) and incubated for 1 h. Fluorescence measurement was then performed using a microplate reader (SpectraMax Paradigm, Molecular Devices, CA, USA) with an excitation wavelength of 450 nm and an emission wavelength of 490 nm. Background fluorescence was measured in control samples containing PBS and 0.02 % DMSO.

APP/PS1 mice [1] = assay: GFAP immunofluorescent staining of brain tissues; type: in vivo; conditions: cortex and hippocampus, HYP nasal, 8 weeks
Description: All animal care and experimental procedures were performed in accordance with the “Institutional Animal Care and User Committee Guidelines” of the Macau University of Science and Technology. APP/PSEN1 (APP/PS1) mice (N000175) were purchased from the Nanjing Institute of Biomedical Sciences, Nanjing University, China, weighing 25 ± 5 g. The animals were housed in a temperature-controlled room with a 12 h light/dark cycle and given ad libitum food and water. Male mice were randomly divided into the following 6 experimental groups. (a) wild-type group (n = 6), (b) APP/PS1 group (n = 6), (c) HYP (20 mg/kg group) (n = 7), (d) HYP (40 mg/kg) group (n = 8), (e) HYP (80 mg/kg) group (n = 8) and (f) memantine (MEM) (10 mg/kg) positive control group (n = 8). HYP was dissolved in the solvent containing 10% DMSO, 40% PEG300 and 5% Tween-80 in PBS, and administrated via nasal injection for every 3 days with a volume of 0.5 μL/g of body weight for 8 consecutive weeks. Brain tissues from all treatment groups were fixed and embedded in paraffin for microtome sectioning and immunofluorescence staining. […] The coverslips were then mounted with FluorSave™ mounting media (Calbiochem, San Diego, CA, USA) for fluorescence imaging. […]

APP/PS1 mice [2] = assay: Western blot of Bcl-2, Bax and cyto-c in cortex and hippocampus lysates; type: in vivo; conditions: 8 weeks of HYP treatment vs APP/PS1 untreated group
Description: After HYP treatment, the cells were lysed with RIPA. Protein concentrations were determined by Bio-Rad protein assay (Bio-Rad Laboratories, CA, USA). After electrophoretic separation, the gels were blotted and stained with primary antibodies. Binding of antibodies was visualized with peroxidase-coupled secondary antibodies using ECL Western Blotting detection reagents (Invitrogen, Scotland, UK). Band intensities were quantified using ImageJ software. Data were obtained from three independent experiments. All animal care and experimental procedures were performed in accordance with the “Institutional Animal Care and User Committee Guidelines” of the Macau University of Science and Technology. APP/PSEN1 (APP/PS1) mice (N000175) were purchased from the Nanjing Institute of Biomedical Sciences, Nanjing University, China, weighing 25 ± 5 g. The animals were housed in a temperature-controlled room with a 12 h light/dark cycle and given ad libitum food and water. Male mice were randomly divided into the following 6 experimental groups. (a) wild-type group (n = 6), (b) APP/PS1 group (n = 6), (c) HYP (20 mg/kg group) (n = 7), (d) HYP (40 mg/kg) group (n = 8), (e) HYP (80 mg/kg) group (n = 8) and (f) memantine (MEM) (10 mg/kg) positive control group (n = 8). […]

HT22 cells [3] = assay: LIVE/DEAD cells analysis (calcein AM / PI); type: cell-based; conditions: aggregated Aβ-treated HT22, HYP co-treatment 24 h
Description: According to the manufacturer's instructions, cell death was detected by Calcein AM Cell Viability Assay Kit (Beyotime, Shanghai, CHINA). 5 × 10^4 HT22 cells per well were seeded in 24-well plates, and HT22 was treated with HYP (20–80 μM) or PBS for 24 h. After overnight incubation, treated cells were stained with Calcein/Propidium Iodide (PI) dye for 20 min. Cells images were then visualized and captured by using Olympus IX71 fluorescence microscope with FITC and TRITC filters consecutively. Green and red fluorescence images were merged and analyzed with cellSens Standard 1.8.1 software. The percentage of cell death was quantified by dividing the number of dead cells (red fluorescence) by the total number of cells.

HT22 cells [4] = assay: Cytoplasmic calcium dynamics (FLIPR Calcium 6); type: cell-based
Description: Intracellular Ca^2+ dynamics were determined using the FLIPR Calcium 6 Assay Kit (Molecular Devices) according to the manufacturer's instructions. Briefly, HT22 was housed at 4 × 10^4 cells per well in a black-walled and clear-bottom 96 multi-well plate (Costar, MA, USA) and treated with Calcium 6 reagent for 1 h.

T1 sequence (P05067 672-713 limits assumed): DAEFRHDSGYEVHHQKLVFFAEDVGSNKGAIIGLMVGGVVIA

SMILES: O=c1c(O[C@@H]2O[C@H](CO)[C@H](O)[C@H](O)[C@H]2O)c(-c2ccc(O)c(O)c2)oc2cc(O)cc(O)c12 [HYP, Quercetin-3-O-β-D-galactopyranoside]
- Aβ fibrillation and aggregation (ThT fluorescence) (Aβ (1–42)): reduced Aβ fibrillation and aggregation
- level of GFAP (APP/PS1 mice [1]): decreased the level of GFAP in both the cortex and hippocampus
- level of Bax, cyto-c, Bcl-2 and Bax/Bcl-2 ratio (APP/PS1 mice [2]): a decrease in the level of both Bax and cyto-c, an increase in Bcl-2 expression, and a reduction in the Bax/Bcl-2 ratio
- cell viability by calcein AM / PI staining (HT22 cells [3]): increase of cell viability
- dynamic Ca2+ level induced by Aβ (HT22 cells [4]; HT22 cells, Aβ 30 μM + HYP 20–80 μM, calcium-containing HBSS): decreased the level of Ca^2+ in a dose dependent manner
- dynamic Ca2+ level induced by Aβ (HT22 cells [4]; HT22 cells, Aβ 30 μM + HYP 20–80 μM, calcium-free HBSS): downregulated the Aβ -induced level of Ca^2+ in a dose-dependent manner
- dynamic Ca2+ level induced by Aβ (HT22 cells [4]; si-RyR2 HT22 cells, aggregated Aβ 30 μM + HYP 40 μM): restored the Aβ-induced dishomeostasis of Ca^2+ in si-RyR2 HT22 cells (Fig. 9H) to a lesser extent
